Measured values published in ChEMBL document CHEMBL1817568, “Novel hybrids of fluconazole and furanones: design, synthesis and antifungal activity” (2011).
≈ marks a conversion by molar mass, not a printed value. Calls of active or inactive are those of the source. The rule behind the calls is not given here.

Columns and labels:
Candida albicans [1] = experiment: Antifungal activity against Candida albicans ATCC 24433 at 8 ug/ml by broth dilution method; type: functional, organism-based
Nakaseomyces glabratus [2] = experiment: Antifungal activity against Candida glabrata ATCC 90030 at 8 ug/ml by broth dilution method; type: functional, organism-based
Pichia kudriavzevii [3] = experiment: Antifungal activity against Candida krusei ATCC 6258 at 8 ug/ml by broth dilution method; type: functional, organism-based
Cryptococcus neoformans [4] = experiment: Antifungal activity against Cryptococcus neoformans ATCC 34664 at 8 ug/ml by broth dilution method; type: functional, organism-based
Aspergillus niger [5] = experiment: Antifungal activity against Aspergillus niger ATCC 16404 at 8 ug/ml by broth dilution method; type: functional, organism-based
Aspergillus fumigatus [6] = experiment: Antifungal activity against Aspergillus fumigatus ATCC 46645 at 8 ug/ml by broth dilution method; type: functional, organism-based
Fusarium proliferatum [7] = experiment: Antifungal activity against Fusarium proliferatum ATCC 10052 at 8 ug/ml by broth dilution method; type: functional, organism-based
Candida albicans [8] = experiment: Antifungal activity against Candida albicans ATCC 24433 by broth dilution method; type: functional
Nakaseomyces glabratus [9] = experiment: Antifungal activity against Candida glabrata ATCC 90030 by broth dilution method; type: functional
Candida tropicalis [10] = experiment: Antifungal activity against Candida tropicalis ATCC 750 by broth dilution method; type: functional
Pichia kudriavzevii [11] = experiment: Antifungal activity against Candida krusei ATCC 6258 at 128 ug/ml by broth dilution method; type: functional, organism-based
Cryptococcus neoformans [12] = experiment: Antifungal activity against Cryptococcus neoformans ATCC 34664 by broth dilution method; type: functional
Aspergillus niger [13] = experiment: Antifungal activity against Aspergillus niger ATCC 16404 at 128 ug/ml by broth dilution method; type: functional, organism-based
Aspergillus fumigatus [14] = experiment: Antifungal activity against Aspergillus fumigatus ATCC 46645 at 128 ug/ml by broth dilution method; type: functional, organism-based
Fusarium proliferatum [15] = experiment: Antifungal activity against Fusarium proliferatum ATCC 10052 at 128 ug/ml by broth dilution method; type: functional, organism-based
Pichia kudriavzevii [16] = experiment: Antifungal activity against Candida krusei ATCC 6258 at 16 ug/ml by broth dilution method; type: functional, organism-based
Pichia kudriavzevii [17] = experiment: Antifungal activity against Candida krusei ATCC 6258 at 32 ug/ml by broth dilution method; type: functional, organism-based
Cryptococcus neoformans [18] = experiment: Antifungal activity against Cryptococcus neoformans ATCC 34664 at 32 ug/ml by broth dilution method; type: functional, organism-based
Aspergillus niger [19] = experiment: Antifungal activity against Aspergillus niger ATCC 16404 at 32 ug/ml by broth dilution method; type: functional, organism-based
Aspergillus fumigatus [20] = experiment: Antifungal activity against Aspergillus fumigatus ATCC 46645 at 32 ug/ml by broth dilution method; type: functional, organism-based
Fusarium proliferatum [21] = experiment: Antifungal activity against Fusarium proliferatum ATCC 10052 at 32 ug/ml by broth dilution method; type: functional, organism-based
Candida albicans [22] = experiment: Antifungal activity against Candida albicans ATCC 24433 at 32 ug/ml by broth dilution method; type: functional, organism-based
Nakaseomyces glabratus [23] = experiment: Antifungal activity against Candida glabrata ATCC 90030 at 32 ug/ml by broth dilution method; type: functional, organism-based
Candida tropicalis [24] = experiment: Antifungal activity against Candida tropicalis ATCC 750 at 32 ug/ml by broth dilution method; type: functional, organism-based
Candida albicans [25] = experiment: Antifungal activity against Candida albicans ATCC 24433 at 2 ug/ml by broth dilution method; type: functional, organism-based
Pichia kudriavzevii [26] = experiment: Antifungal activity against Candida krusei ATCC 6258 at 2 ug/ml by broth dilution method; type: functional, organism-based
Nakaseomyces glabratus [27] = experiment: Antifungal activity against Candida glabrata ATCC 90030 at 2 ug/ml by broth dilution method; type: functional, organism-based
Candida tropicalis [28] = experiment: Antifungal activity against Candida tropicalis ATCC 750 at 2 ug/ml by broth dilution method; type: functional, organism-based
Cryptococcus neoformans [29] = experiment: Antifungal activity against Cryptococcus neoformans ATCC 34664 at 2 ug/ml by broth dilution method; type: functional, organism-based
Aspergillus niger [30] = experiment: Antifungal activity against Aspergillus niger ATCC 16404 at 2 ug/ml by broth dilution method; type: functional, organism-based
Aspergillus fumigatus [31] = experiment: Antifungal activity against Aspergillus fumigatus ATCC 46645 at 2 ug/ml by broth dilution method; type: functional, organism-based
Fusarium proliferatum [32] = experiment: Antifungal activity against Fusarium proliferatum ATCC 10052 at 2 ug/ml by broth dilution method; type: functional, organism-based
Candida albicans [33] = experiment: Antifungal activity against Candida albicans ATCC 24433 at 4 ug/ml by broth dilution method; type: functional, organism-based
Nakaseomyces glabratus [34] = experiment: Antifungal activity against Candida glabrata ATCC 90030 at 4 ug/ml by broth dilution method; type: functional, organism-based
Pichia kudriavzevii [35] = experiment: Antifungal activity against Candida krusei ATCC 6258 at 4 ug/ml by broth dilution method; type: functional, organism-based
Candida tropicalis [36] = experiment: Antifungal activity against Candida tropicalis ATCC 750 at 4 ug/ml by broth dilution method; type: functional, organism-based
Cryptococcus neoformans [37] = experiment: Antifungal activity against Cryptococcus neoformans ATCC 34664 at 4 ug/ml by broth dilution method; type: functional, organism-based
Aspergillus niger [38] = experiment: Antifungal activity against Aspergillus niger ATCC 16404 at 4 ug/ml by broth dilution method; type: functional, organism-based
Aspergillus fumigatus [39] = experiment: Antifungal activity against Aspergillus fumigatus ATCC 46645 at 4 ug/ml by broth dilution method; type: functional, organism-based
Fusarium proliferatum [40] = experiment: Antifungal activity against Fusarium proliferatum ATCC 10052 at 4 ug/ml by broth dilution method; type: functional, organism-based
Candida albicans [41] = experiment: Antifungal activity against Candida albicans ATCC 24433 at 16 ug/ml by broth dilution method; type: functional, organism-based
Nakaseomyces glabratus [42] = experiment: Antifungal activity against Candida glabrata ATCC 90030 at 16 ug/ml by broth dilution method; type: functional, organism-based
Candida tropicalis [43] = experiment: Antifungal activity against Candida tropicalis ATCC 750 at 16 ug/ml by broth dilution method; type: functional, organism-based
Cryptococcus neoformans [44] = experiment: Antifungal activity against Cryptococcus neoformans ATCC 34664 at 16 ug/ml by broth dilution method; type: functional, organism-based
Aspergillus niger [45] = experiment: Antifungal activity against Aspergillus niger ATCC 16404 at 16 ug/ml by broth dilution method; type: functional, organism-based
Aspergillus fumigatus [46] = experiment: Antifungal activity against Aspergillus fumigatus ATCC 46645 at 16 ug/ml by broth dilution method; type: functional, organism-based
Fusarium proliferatum [47] = experiment: Antifungal activity against Fusarium proliferatum ATCC 10052 at 16 ug/ml by broth dilution method; type: functional, organism-based

What does the source list for `COc1ccc(/C=C2\SC(=S)NC2=O)cc1OCC(O)(Cn1cncn1)c1ccc(F)cc1F` (racemic)?
Activity (Candida albicans [1]): inactive; Activity (Nakaseomyces glabratus [2]): inactive; Activity (Pichia kudriavzevii [3]): inactive; Activity (Cryptococcus neoformans [4]): inactive; Activity (Aspergillus niger [5]): inactive; Activity (Aspergillus fumigatus [6]): inactive; Activity (Fusarium proliferatum [7]): inactive

`O=C(O)Cc1ccc(OCC(O)(Cn2cncn2)c2ccc(F)cc2F)cc1` (racemic) was tested. Which MIC50 (Candida albicans [8]) did it give?
The MIC50 was 8 µg/mL (≈ 20.5 µM).

What about the MIC50 (Nakaseomyces glabratus [9]) of the same compound?
The MIC50 was 8 µg/mL (≈ 20.5 µM).

And the MIC50 (Candida tropicalis [10])?
Its MIC50 is 64 µg/mL (≈ 164 µM).

And the Activity (Pichia kudriavzevii [11])?
Its Activity is “inactive”.

What about the MIC50 (Cryptococcus neoformans [12]) of the same compound?
Its MIC50 is 64 µg/mL (≈ 164 µM).

What about the Activity (Aspergillus niger [13]) of the same compound?
The Activity was “inactive”.

What about the Activity (Aspergillus fumigatus [14]) of the same compound?
The Activity was “inactive”.

What about the Activity (Fusarium proliferatum [15]) of the same compound?
The Activity was “inactive”.

How did the MIC50 (Candida albicans [8]) turn out when `COc1cc(C2=C(c3ccc(F)cc3)COC2=O)ccc1OCC(O)(Cn1cncn1)c1ccc(F)cc1F` (racemic) was run?
The MIC50 was 0.5 µg/mL (≈ 0.93 µM).

And the MIC50 (Nakaseomyces glabratus [9])?
The MIC50 was 0.5 µg/mL (≈ 0.93 µM).

What about the MIC50 (Candida tropicalis [10]) of the same compound?
The MIC50 was 2 µg/mL (≈ 3.72 µM).

And the Activity (Pichia kudriavzevii [16])?
Its Activity is “inactive”.

And the MIC50 (Cryptococcus neoformans [12])?
Its MIC50 is 2 µg/mL (≈ 3.72 µM).

And the Activity (Aspergillus niger [5])?
The Activity was “inactive”.

And the Activity (Aspergillus fumigatus [6])?
Its Activity is “inactive”.

What about the Activity (Fusarium proliferatum [7]) of the same compound?
Its Activity is “inactive”.

`O=C1NC(=S)S/C1=C\c1ccc(OCC(O)(Cn2cncn2)c2ccc(F)cc2F)cc1` (racemic) was tested. Which MIC50 (Candida albicans [8]) did it give?
The MIC50 was 0.5 µg/mL (≈ 1.05 µM).

And the MIC50 (Nakaseomyces glabratus [9])?
The MIC50 was 4 µg/mL (≈ 8.43 µM).

And the MIC50 (Candida tropicalis [10])?
Its MIC50 is 8 µg/mL (≈ 16.9 µM).

What about the Activity (Pichia kudriavzevii [17]) of the same compound?
The Activity was “inactive”.

And the Activity (Cryptococcus neoformans [18])?
The Activity was “inactive”.

And the Activity (Aspergillus niger [19])?
The Activity was “inactive”.

And the Activity (Aspergillus fumigatus [20])?
Its Activity is “inactive”.

And the Activity (Fusarium proliferatum [21])?
The Activity was “inactive”.

With `COc1ccc(C2=C(c3ccc(Br)cc3)COC2=O)cc1` as the compound, how does the Activity (Candida albicans [22]) read?
The Activity was “inactive”.

And the Activity (Nakaseomyces glabratus [23])?
The Activity was “inactive”.

What about the Activity (Pichia kudriavzevii [17]) of the same compound?
Its Activity is “inactive”.

And the Activity (Candida tropicalis [24])?
Its Activity is “inactive”.

And the Activity (Cryptococcus neoformans [18])?
Its Activity is “inactive”.

And the Activity (Aspergillus niger [19])?
The Activity was “inactive”.

What about the Activity (Aspergillus fumigatus [20]) of the same compound?
Its Activity is “inactive”.

And the Activity (Fusarium proliferatum [21])?
The Activity was “inactive”.

Which Activity (Candida albicans [25]) does the source give for `COc1ccc(C2=C(c3ccc(Br)cc3)/C(=C/c3ccc(OCC(O)(Cn4cncn4)c4ccc(F)cc4F)cc3)OC2=O)cc1` (racemic) here?
Its Activity is “inactive”.

What about the Activity (Pichia kudriavzevii [26]) of the same compound?
Its Activity is “inactive”.

And the Activity (Nakaseomyces glabratus [27])?
The Activity was “inactive”.

And the Activity (Candida tropicalis [28])?
Its Activity is “inactive”.

And the Activity (Cryptococcus neoformans [29])?
Its Activity is “inactive”.

What about the Activity (Aspergillus niger [30]) of the same compound?
Its Activity is “inactive”.

What about the Activity (Aspergillus fumigatus [31]) of the same compound?
Its Activity is “inactive”.

What about the Activity (Fusarium proliferatum [32]) of the same compound?
The Activity was “inactive”.

How did the Activity (Candida albicans [25]) turn out when `COc1cc(/C=C2\N=C(c3ccccc3)OC2=O)cc(OC)c1OCC(O)(Cn1cncn1)c1ccc(F)cc1F` (racemic) was run?
Its Activity is “inactive”.

What about the Activity (Pichia kudriavzevii [26]) of the same compound?
Its Activity is “inactive”.

What about the Activity (Candida tropicalis [28]) of the same compound?
The Activity was “inactive”.

What about the Activity (Cryptococcus neoformans [29]) of the same compound?
The Activity was “inactive”.

What about the Activity (Aspergillus niger [30]) of the same compound?
The Activity was “inactive”.

And the Activity (Aspergillus fumigatus [31])?
Its Activity is “inactive”.

What about the Activity (Fusarium proliferatum [32]) of the same compound?
The Activity was “inactive”.

What does the source list for `COc1cc(/C=C2\N=C(c3ccccc3)OC2=O)ccc1OCC(O)(Cn1cncn1)c1ccc(F)cc1F` (racemic)?
Activity (Candida albicans [33]): inactive; Activity (Nakaseomyces glabratus [34]): inactive; Activity (Pichia kudriavzevii [35]): inactive; Activity (Candida tropicalis [36]): inactive; Activity (Cryptococcus neoformans [37]): inactive; Activity (Aspergillus niger [38]): inactive; Activity (Aspergillus fumigatus [39]): inactive; Activity (Fusarium proliferatum [40]): inactive

With `O=C1O/C(=C\c2ccc(OCC(O)(Cn3cncn3)c3ccc(F)cc3F)cc2)C(c2ccc(F)cc2F)=C1c1ccc(Cl)cc1` (racemic) as the compound, how does the Activity (Candida albicans [33]) read?
The Activity was “inactive”.

And the Activity (Nakaseomyces glabratus [34])?
The Activity was “inactive”.

And the Activity (Pichia kudriavzevii [35])?
Its Activity is “inactive”.

What about the Activity (Candida tropicalis [36]) of the same compound?
Its Activity is “inactive”.

What about the Activity (Cryptococcus neoformans [37]) of the same compound?
The Activity was “inactive”.

What about the Activity (Aspergillus niger [38]) of the same compound?
The Activity was “inactive”.

And the Activity (Aspergillus fumigatus [39])?
Its Activity is “inactive”.

What about the Activity (Fusarium proliferatum [40]) of the same compound?
Its Activity is “inactive”.

For `COc1cc(/C=C2\SC(=S)NC2=O)cc(OC)c1OCC(O)(Cn1cncn1)c1ccc(F)cc1F` (racemic), which Activity (Candida albicans [41]) is on record?
The Activity was “inactive”.

What about the Activity (Nakaseomyces glabratus [42]) of the same compound?
Its Activity is “inactive”.

What about the Activity (Pichia kudriavzevii [16]) of the same compound?
Its Activity is “inactive”.

What about the Activity (Candida tropicalis [43]) of the same compound?
Its Activity is “inactive”.

What about the Activity (Cryptococcus neoformans [44]) of the same compound?
Its Activity is “inactive”.

What about the Activity (Aspergillus niger [45]) of the same compound?
Its Activity is “inactive”.

What about the Activity (Aspergillus fumigatus [46]) of the same compound?
Its Activity is “inactive”.

And the Activity (Fusarium proliferatum [47])?
Its Activity is “inactive”.
